Assay results reported in patent US11332440B2, “4-oxo-alkylated tetramic acid compound, and preparation method thereof” (priority 2017, dated 2022).
“Also recorded” adds a separate entry of the source.

Assays:
[1] = test system: Salmonella typhimurium TA98; test: Mini Ames experiment, strain TA98; format: cell-based; details: TA98, regardless of the presence or absence of S9
Protocol: (§1) Histidine auxotrophic strains of Salmonella typhimurium were cultured in a special medium with quite a low content of histidine. The strains were difficult to divide due to lack of nutrition. If a test compound has mutagenicity, a large number of cells will undergo reverse mutation, synthesizing histidine by themselves and developing into colonies visible to the naked eye. In view of the close relationship between mutagenicity and carcinogenesis of chemicals, this method has been widely used in screening carcinogens. Some chemicals need metabolic activation to induce mutagenicity. Mammalian microsomal enzyme S9 can be added into the test system to eliminate the influence of metabolic activation on generation of mutagenicity.
(§2) […] Mini Ames test with compound 50561

[2] = test system: Salmonella typhimurium TA100; test: Mini Ames experiment, strain TA100; format: cell-based; details: TA100, regardless of the presence or absence of S9
Protocol: as §1, §2

[3] = Pharmacokinetic evaluation, plasma and brain concentrations; format: in vivo, ICR mice
Excerpt: Distribution of a medicament in the body is one of the important indicators to determine the dose and efficacy of the medicament. Thus, excellent candidate compounds should have good pharmacokinetic characteristics. In addition, since the compound of the present invention is intended to be used for the treatment of Alzheimer's disease, which is a disease of the central nervous system, the distribution pattern of the compound in the brain and the blood is also one of the subjects to be investigated. In this experiment, compound 50561 was administered to mice […] or by gavage, and the concentrations of the compound in blood and brain were measured at specific time points to determine the pharmacokinetic parameters.
Forty-eight male ICR mice purchased from Shanghai Sippr-BK Lab. Animal Co. Ltd were used in this experiment. The oral group was fasted for 10-14 hours before administration, and feeding was restored 4 hours after administration. Samples were collected from the intravenous administration group 0.083 h, 0.25 h, 0.5 h, 1 h, 2 h, 4 h, 8 h, and 24 h after administration, respectively; while for the oral administration group, about 0.5 mL of blood was collected from the heart 0.25 h, 0.5 h, 1 h, 2 h, 4 h, 6 h, 8 h, and 24 h after administration, respectively. Heparin sodium was used for anticoagulation. Blood samples were collected and placed on ice, and plasma was separated by centrifugation (centrifugation conditions: 8000 rpm, 6 minutes, 4C). The collected plasma was stored at −80° C. before analysis. After collecting plasma samples, brain tissues were collected, washed with normal saline, water-absorbed by filter paper, weighed immediately, and then placed in labeled tubes (one tube for one brain tissue). The samples to be tested were temporarily placed on ice before being stored in a −80° C. refrigerator.
The analysis methods of biological samples and the analysis of all samples were done by Medicilon Pharmaceutical Technology (Shanghai) Co., Ltd. The intraday accuracy evaluation of the quality control samples was carried out while analyzing the samples, and the accuracy of over 66.7% of the quality control samples was required to be between 80-120%.
When calculating the pharmacokinetic parameters, the BLQ before Cmax (including “No peak”) was calculated as 0; BLQ occurring after Cmax (including “No peak”) was not involved in the calculation. WinNonlin Professional V 5.2 (Pharsight, USA) was adopted to calculate the following pharmacokinetic parameters: AUC(0-t), AUC(0-∞), T1/2, MRT(0-∞), Cmax, and Tmax. The tissue/plasma ratio was to be calculated by the following formula based on the blood concentration data at different time points: Tissue/plasma ratio (mL/g)=tissue blood concentration/plasma blood concentration.

Question: For `O=C1C=C(OCc2ccc(F)cc2)[C@H](Cc2ccccc2)N1` [Compound 50561], which “change in the number of colonies / mutagenicity” value [1] is on record?
Answer: did not cause more than twice of a change in the number of colonies; also recorded: no obvious mutagenicity

Question: What about the “change in the number of colonies / mutagenicity” value [2] of the same molecule?
Answer: did not cause more than twice of a change in the number of colonies; also recorded: no obvious mutagenicity

Question: And the Brain/plasma ratio ([3]; IV 1 mg/kg, 0.083 hr, G1-1)?
Answer: 2.604 mL/G

Question: And the Brain/plasma ratio ([3]; IV 1 mg/kg, 0.083 hr, G1-2)?
Answer: 2.645 mL/G

Question: What about the Brain/plasma ratio ([3]; IV 1 mg/kg, 0.083 hr, G1-3) of the same molecule?
Answer: 2.249 mL/G

Question: And the Brain/plasma ratio ([3]; IV 1 mg/kg, 0.083 hr, Mean)?
Answer: 2.499 mL/G

Question: And the Brain/plasma ratio ([3]; IV 1 mg/kg, 0.25 hr, G1-1)?
Answer: 2.451 mL/G

Question: What about the Brain/plasma ratio ([3]; IV 1 mg/kg, 0.25 hr, G1-2) of the same molecule?
Answer: 2.415 mL/G

Question: What about the Brain/plasma ratio ([3]; IV 1 mg/kg, 0.25 hr, G1-3) of the same molecule?
Answer: 2.159 mL/G

Question: And the Brain/plasma ratio ([3]; IV 1 mg/kg, 0.25 hr, Mean)?
Answer: 2.342 mL/G

Question: What about the Brain/plasma ratio ([3]; IV 1 mg/kg, 0.5 hr, G1-1) of the same molecule?
Answer: 2.540 mL/G

Question: What about the Brain/plasma ratio ([3]; IV 1 mg/kg, 0.5 hr, G1-2) of the same molecule?
Answer: 2.564 mL/G

Question: And the Brain/plasma ratio ([3]; IV 1 mg/kg, 0.5 hr, G1-3)?
Answer: 2.361 mL/G

Question: And the Brain/plasma ratio ([3]; IV 1 mg/kg, 0.5 hr, Mean)?
Answer: 2.488 mL/G

Question: And the Brain/plasma ratio ([3]; IV 1 mg/kg, 1 hr, G1-1)?
Answer: 2.330 mL/G

Question: What about the Brain/plasma ratio ([3]; IV 1 mg/kg, 1 hr, G1-2) of the same molecule?
Answer: 3.941 mL/G

Question: What about the Brain/plasma ratio ([3]; IV 1 mg/kg, 1 hr, G1-3) of the same molecule?
Answer: 2.751 mL/G

Question: And the Brain/plasma ratio ([3]; IV 1 mg/kg, 1 hr, Mean)?
Answer: 3.007 mL/G

Question: And the Blood concentration ([3]; IV 1 mg/kg, 2 hr, G1-1)?
Answer: BLQ

Question: What about the Brain tissue concentration ([3]; IV 1 mg/kg, 2 hr, G1-1) of the same molecule?
Answer: BLQ

Question: And the Blood concentration ([3]; IV 1 mg/kg, 2 hr, G1-2)?
Answer: BLQ

Question: What about the Brain tissue concentration ([3]; IV 1 mg/kg, 2 hr, G1-2) of the same molecule?
Answer: BLQ

Question: What about the Blood concentration ([3]; IV 1 mg/kg, 2 hr, G1-3) of the same molecule?
Answer: BLQ

Question: What about the Brain tissue concentration ([3]; IV 1 mg/kg, 2 hr, G1-3) of the same molecule?
Answer: BLQ

Question: What about the Blood concentration ([3]; IV 1 mg/kg, 4 hr, G1-1) of the same molecule?
Answer: BLQ

Question: And the Brain tissue concentration ([3]; IV 1 mg/kg, 4 hr, G1-1)?
Answer: BLQ

Question: And the Blood concentration ([3]; IV 1 mg/kg, 4 hr, G1-2)?
Answer: BLQ

Question: What about the Brain tissue concentration ([3]; IV 1 mg/kg, 4 hr, G1-2) of the same molecule?
Answer: BLQ

Question: What about the Blood concentration ([3]; IV 1 mg/kg, 4 hr, G1-3) of the same molecule?
Answer: BLQ

Question: What about the Brain tissue concentration ([3]; IV 1 mg/kg, 4 hr, G1-3) of the same molecule?
Answer: BLQ

Question: What about the Blood concentration ([3]; IV 1 mg/kg, 8 hr, G1-1) of the same molecule?
Answer: BLQ

Question: What about the Brain tissue concentration ([3]; IV 1 mg/kg, 8 hr, G1-1) of the same molecule?
Answer: BLQ

Question: And the Blood concentration ([3]; IV 1 mg/kg, 8 hr, G1-2)?
Answer: BLQ

Question: And the Brain tissue concentration ([3]; IV 1 mg/kg, 8 hr, G1-2)?
Answer: BLQ

Question: What about the Blood concentration ([3]; IV 1 mg/kg, 8 hr, G1-3) of the same molecule?
Answer: BLQ

Question: And the Brain tissue concentration ([3]; IV 1 mg/kg, 8 hr, G1-3)?
Answer: BLQ

Question: And the Blood concentration ([3]; IV 1 mg/kg, 24 hr, G1-1)?
Answer: BLQ

Question: And the Brain tissue concentration ([3]; IV 1 mg/kg, 24 hr, G1-1)?
Answer: BLQ

Question: And the Blood concentration ([3]; IV 1 mg/kg, 24 hr, G1-2)?
Answer: BLQ

Question: What about the Brain tissue concentration ([3]; IV 1 mg/kg, 24 hr, G1-2) of the same molecule?
Answer: BLQ

Question: What about the Blood concentration ([3]; IV 1 mg/kg, 24 hr, G1-3) of the same molecule?
Answer: BLQ

Question: What about the Brain tissue concentration ([3]; IV 1 mg/kg, 24 hr, G1-3) of the same molecule?
Answer: BLQ

Question: And the Brain/plasma ratio ([3]; PO 10 mg/kg, 0.25 hr, G2-1)?
Answer: 1.948 mL/G

Question: What about the Brain/plasma ratio ([3]; PO 10 mg/kg, 0.25 hr, G2-2) of the same molecule?
Answer: 1.590 mL/G

Question: And the Brain/plasma ratio ([3]; PO 10 mg/kg, 0.25 hr, G2-3)?
Answer: 2.093 mL/G

Question: And the Brain/plasma ratio ([3]; PO 10 mg/kg, 0.25 hr, Mean)?
Answer: 1.877 mL/G

Question: What about the Brain/plasma ratio ([3]; PO 10 mg/kg, 0.5 hr, G2-1) of the same molecule?
Answer: 2.435 mL/G

Question: What about the Brain/plasma ratio ([3]; PO 10 mg/kg, 0.5 hr, G2-2) of the same molecule?
Answer: 2.027 mL/G

Question: What about the Brain/plasma ratio ([3]; PO 10 mg/kg, 0.5 hr, G2-3) of the same molecule?
Answer: 1.980 mL/G

Question: And the Brain/plasma ratio ([3]; PO 10 mg/kg, 0.5 hr, Mean)?
Answer: 2.147 mL/G

Question: What about the Brain/plasma ratio ([3]; PO 10 mg/kg, 1 hr, G2-1) of the same molecule?
Answer: 2.485 mL/G

Question: And the Brain/plasma ratio ([3]; PO 10 mg/kg, 1 hr, G2-2)?
Answer: 2.152 mL/G

Question: And the Brain/plasma ratio ([3]; PO 10 mg/kg, 1 hr, G2-3)?
Answer: 2.158 mL/G

Question: What about the Brain/plasma ratio ([3]; PO 10 mg/kg, 1 hr, Mean) of the same molecule?
Answer: 2.265 mL/G

Question: And the Brain/plasma ratio ([3]; PO 10 mg/kg, 2 hr, G2-1)?
Answer: 2.163 mL/G

Question: And the Brain/plasma ratio ([3]; PO 10 mg/kg, 2 hr, G2-2)?
Answer: 2.454 mL/G

Question: What about the Brain/plasma ratio ([3]; PO 10 mg/kg, 2 hr, G2-3) of the same molecule?
Answer: 2.372 mL/G

Question: And the Brain/plasma ratio ([3]; PO 10 mg/kg, 2 hr, Mean)?
Answer: 2.329 mL/G

Question: And the Brain/plasma ratio ([3]; PO 10 mg/kg, 4 hr, G2-1)?
Answer: 2.373 mL/G

Question: And the Brain/plasma ratio ([3]; PO 10 mg/kg, 4 hr, G2-2)?
Answer: 2.428 mL/G

Question: And the Brain/plasma ratio ([3]; PO 10 mg/kg, 4 hr, G2-3)?
Answer: 1.355 mL/G

Question: What about the Brain/plasma ratio ([3]; PO 10 mg/kg, 4 hr, Mean) of the same molecule?
Answer: 2.052 mL/G

Question: What about the Brain/plasma ratio ([3]; PO 10 mg/kg, 6 hr, G2-1) of the same molecule?
Answer: 1.839 mL/G

Question: And the Brain/plasma ratio ([3]; PO 10 mg/kg, 6 hr, G2-2)?
Answer: 2.764 mL/G

Question: What about the Brain/plasma ratio ([3]; PO 10 mg/kg, 6 hr, G2-3) of the same molecule?
Answer: 2.929 mL/G

Question: And the Brain/plasma ratio ([3]; PO 10 mg/kg, 6 hr, Mean)?
Answer: 2.511 mL/G

Question: What about the Brain/plasma ratio ([3]; PO 10 mg/kg, 8 hr, G2-1) of the same molecule?
Answer: 1.575 mL/G

Question: And the Brain/plasma ratio ([3]; PO 10 mg/kg, 8 hr, G2-2)?
Answer: 2.443 mL/G

Question: And the Brain tissue concentration ([3]; PO 10 mg/kg, 8 hr, G2-3)?
Answer: BLQ

Question: What about the Brain/plasma ratio ([3]; PO 10 mg/kg, 8 hr, Mean) of the same molecule?
Answer: 2.009 mL/G

Question: What about the Blood concentration ([3]; PO 10 mg/kg, 24 hr, G2-1) of the same molecule?
Answer: BLQ

Question: What about the Brain tissue concentration ([3]; PO 10 mg/kg, 24 hr, G2-1) of the same molecule?
Answer: BLQ

Question: And the Blood concentration ([3]; PO 10 mg/kg, 24 hr, G2-2)?
Answer: BLQ

Question: And the Brain tissue concentration ([3]; PO 10 mg/kg, 24 hr, G2-2)?
Answer: BLQ

Question: And the Blood concentration ([3]; PO 10 mg/kg, 24 hr, G2-3)?
Answer: BLQ

Question: And the Brain tissue concentration ([3]; PO 10 mg/kg, 24 hr, G2-3)?
Answer: BLQ

Question: What about the “blood-brain barrier permeability (content in brain tissue versus blood)” value ([3]; after intravenous injection and oral administration) of the same molecule?
Answer: good blood-brain barrier permeability

Question: What about the concentration at 0.083 h ([3]; male, ICR, mouse, brain, IV 1 mg/kg, 0.083 hr, G1-3, read-out: Brain tissue concentration) of the same molecule?
Answer: 977 ng/g
